Source: patent publication US9101628B2, “Methods and composition of treating a flaviviridae family viral infection” (The Board of Trustees of the Leland Stanford Junior …, priority 2007, dated 2015)

System: HCV RNA replication
Test: RNA replication inhibition assay (luciferase reporter-linked HCV genome)
Settings: Hepatitis C virus, percentage of untreated control population; for activity at 5 µM: read-out: Residual Luciferase activity, 5 micromolar; for activity at 10 µM: read-out: Residual Luciferase activity, 10 micromolar

Row | SMILES | activity at 5 µM [%] | activity at 10 µM [%]
1 | CCCN(CCC)Cc1nc2ccccc2n1Cc1ccc(Cl)cc1 [Compound 5] | < 80 | < 55
2 | COCC1CCN(Cc2nc3ccccc3n2Cc2ccc(Cl)cc2)C1 (centres unmarked) [Compound 6] | > 80 | < 80
3 | COC(=O)C1CCN(Cc2nc3ccccc3n2Cc2ccc(Cl)cc2)C1 (centres unmarked) [Compound 7] | > 80 | > 80
4 | COC(=O)C1CCCN1Cc1nc2ccccc2n1Cc1ccc(Cl)cc1 (centres unmarked) [Compound 8] | < 55 | < 55
5 | COCC1CCCN1Cc1nc2ccccc2n1Cc1ccc(Cl)cc1 (centres unmarked) [Compound 10] | < 80 | < 80
6 | O=C1CCCN1Cc1nc2ccccc2n1Cc1ccc(Cl)cc1 [Compound 12] | < 80 | < 80
7 | COC(=O)c1ccc(Cn2c(CN3CCCC3)nc3ccccc32)cc1 [Compound 14] | < 80 | < 80
8 | O=C(O)c1ccc(Cn2c(CN3CCCC3)nc3ccccc32)cc1 [Compound 15] | > 80 | > 80
9 | COC(=O)c1cccc(Cn2c(CN3CCCC3)nc3ccccc32)c1 [Compound 16] | > 80 | > 80
10 | O=C(O)c1cccc(Cn2c(CN3CCCC3)nc3ccccc32)c1 [Compound 17] | > 80 | > 80
11 | Clc1cccc(Cn2c(CN3CCCC3)nc3ccccc32)c1 [Compound 18] | < 80 | < 80
12 | Clc1ccccc1Cn1c(CN2CCCC2)nc2ccccc21 [Compound 19] | > 80 | > 80
13 | c1ccc2c(c1)nc(CN1CCCC1)n2Cc1ccncc1 [Compound 20] | > 80 | > 80
14 | c1cncc(Cn2c(CN3CCCC3)nc3ccccc32)c1 [Compound 21] | > 80 | > 80
15 | c1ccc2c(c1)nc(CN1CCCC1)n2CC1CCCCC1 [Compound 22] | > 80 | < 80
16 | O[C@H]1CCN(Cc2nc3ccccc3n2Cc2ccc(Cl)cc2)C1 [Compound 23] | > 80 | > 80
17 | O[C@@H]1CCN(Cc2nc3ccccc3n2Cc2ccc(Cl)cc2)C1 [Compound 24] | > 80 | > 80
18 | OC[C@@H]1CCCN1Cc1nc2ccccc2n1Cc1ccc(Cl)cc1 [Compound 25] | < 80 | < 55
19 | CC1CCC(C)N1Cc1nc2ccccc2n1Cc1ccc(Cl)cc1 (centres unmarked) [Compound 26] | > 80 | > 80
20 | Clc1ccc(Cn2c(CN3CCCCCC3)nc3ccccc32)cc1 [Compound 27] | < 80 | < 55
21 | Cc1ccc2c(c1)nc(CN1CCCC1)n2Cc1ccc(Cl)cc1 [Compound 28] | > 80 | < 55
22 | COCC1CCCN1Cc1nc2cc(C)ccc2n1Cc1ccc(Cl)cc1 (centres unmarked) [Compound 29] | > 80 | < 55
23 | COCC1CCCN1Cc1nc2c(C)c(C)ccc2n1Cc1ccc(Cl)cc1 (centres unmarked) [Compound 31] | < 80 | < 55
24 | Clc1ccc(Cn2c(CN3CCCC3)nc3ccccc32)s1 [Compound 32] | < 80 | < 80
25 | Cc1ccc2c(nc(CN3CCCC3=O)n2Cc2ccc(Cl)cc2)c1C [Compound 33] | > 80 | > 80
26 | CC(=O)N1CCCC(Cn2c(CN3CCCC3)nc3ccccc32)C1 (centres unmarked) [Compound 34] | > 80 | > 80
27 | CS(=O)(=O)N1CCCC(Cn2c(CN3CCCC3)nc3ccccc32)C1 (centres unmarked) [Compound 35] | > 80 | > 80

Row | SMILES | activity at 5 µM [%] | activity at 10 µM [%]
28 | c1ccc2c(c1)nc(CN1CCCC1)n2CC1CCNCC1 [Compound 36] | < 80 | > 80
29 | CC(=O)N1CCC(Cn2c(CN3CCCC3)nc3ccccc32)CC1 [Compound 37] | < 80 | > 80
30 | CS(=O)(=O)N1CCC(Cn2c(CN3CCCC3)nc3ccccc32)CC1 [Compound 38] | < 80 | > 80
31 | c1ccc2c(c1)nc(CN1CCCC1)n2CC1CCCNC1 (centres unmarked) [Compound 39] | < 80 | < 80
32 | Cc1ccc(Cn2c(CN3CCCC3)nc3ccccc32)cc1 [Compound 40] | < 80 | < 80
33 | CC(C)c1ccc(Cn2c(CN3CCCC3)nc3ccccc32)cc1 [Compound 41] | < 80 | < 80
34 | FC(F)Oc1ccc(Cn2c(CN3CCCC3)nc3ccccc32)cc1 [Compound 42] | > 80 | < 80
35 | Clc1ccc(Cn2c(-c3cncs3)nc3ccccc32)cc1 [Compound 43] | < 80 | < 55
36 | O=C(O)c1ccc2c(c1)ncn2Cc1ccc(Cl)cc1 [Compound 44] | < 80 | > 80
37 | O=C(O)c1ccc2ncn(Cc3ccc(Cl)cc3)c2c1 [Compound 45] | > 80 | > 80
38 | Clc1ccc(CCn2cnc3ccccc32)cc1 [Compound 46] | > 80 | < 80
39 | Cc1cc2nc(CN3CCC[C@H]3CO)n(Cc3ccc(Cl)cc3)c2cc1C [Compound 47] | < 80 | < 80
40 | Cc1cc2nc(CN3CCC[C@@H]3CO)n(Cc3ccc(Cl)cc3)c2cc1C [Compound 48] | > 80 | < 80
41 | Cc1cc2nc(CN3CCCC3C)n(Cc3ccc(Cl)cc3)c2cc1C (centres unmarked) [Compound 49] | < 55 | < 55
42 | Cc1cc2nc(CN3CCC[C@H]3CN3CCCC3)n(Cc3ccc(Cl)cc3)c2cc1C [Compound 50] | < 20 | < 20
43 | Cc1cc2nc(CN3CCCC3c3ccccn3)n(Cc3ccc(Cl)cc3)c2cc1C (centres unmarked) [Compound 51] | < 20 | < 20
44 | Cc1cc2nc(CN3CCCC3C(N)=O)n(Cc3ccc(Cl)cc3)c2cc1C (centres unmarked) [Compound 52] | < 80 | < 80
45 | Cc1ccc2c(c1)ncn2Cc1ccc(Cl)cc1 [Compound 53] | < 55 | < 20
46 | Fc1cc2ncn(Cc3ccc(Cl)cc3)c2cc1Cl [Compound 55] | < 80 | < 80
47 | COc1ccc2c(c1)ncn2Cc1ccc(Cl)cc1 [Compound 56] | < 80 | < 55
48 | COc1cc2ncn(Cc3ccc(Cl)cc3)c2cc1OC [Compound 57] | < 80 | < 55
49 | Clc1ccc(Cn2cnc3cc(Cl)ccc32)cc1 [Compound 58] | < 80 | 
50 | Cc1ccc2c(ncn2Cc2ccc(Cl)cc2)c1C [Compound 59] | < 55 | < 55
51 | Oc1ccc2c(c1)ncn2Cc1ccc(Cl)cc1 [Compound 60] | < 20 | < 20
52 | Oc1ccc2ncn(Cc3ccc(Cl)cc3)c2c1 [Compound 61] | > 80 | < 80
53 | Cc1cc2nc(CN3CCCC3=O)n(Cc3ccc(Cl)cc3)c2cc1C [Compound 63] | < 80 | > 80
54 | Clc1ccc(Cn2cnc3cc4c(cc32)OCCO4)cc1 [Compound 64] | < 80 | < 80
